Measurements taken from patent US7199120B2, “Pyrazolo-pyridine derivatives as antiherpes agents” (SmithKline Beecham Corporation, priority 2001, dated 2007).

Test system: HSV-1
Experiment: HSV-1 replication in infected Vero 76 cells, viral DNA hybridization capture assay
Type: cell-based, herpes simplex virus 1
Settings: Human alphaherpesvirus 1; HSV-1 (MOI=0.001) in Vero 76 cells, 40–48 hours incubation, chemiluminescent detection of HSV DNA
Experimental: Vero 76 cells were maintained in MEM with Earle's salts, L-glutamine, 8% FBS (Hyclone, A-1111-L) and 100 units/mL Penicillin-100 μg/mL Streptomycin. For assay conditions, FBS was reduced to 2%. Cells are seeded into 96-well tissue culture plates at a density of 5×10^4 cells/well after being incubated for 45 min at 37° C. in the presence of HSV-1 or HSV-2 (MOI=0.001). Test compounds are added to the wells and the plates are incubated at 37° C. for 40–48 hours. Cell lysates are prepared as follows: media was removed and replaced with 150 μL/well 0.2 N NaOH with 1% Igepal CA 630 or NP-40. Plates were incubated up to 14 days at room temperature in a humidified chamber to prevent evaporation.
For the detection probe, a gel-purified, digoxigenin-labeled, 710-bp PCR fragment of the HSV UL-15 sequence was utilized. PCR conditions included 0.5 μM primers, 180 μM dTTP, 20 μM dUTP-digoxigenin (Boehringer Mannheim 1558706), 200 μM each of dATP, dCTP, and dGTP, 1×PCR Buffer II (Perkin Elmer), 2.5 mM MgCl2, 0.025 units/μL of AmpliTaq Gold polymerase (Perkin Elmer), and 5 ng of gel-purified HSV DNA per 100 μL Extension conditions were 10 min at 95° C., followed by 30 cycles of 95° C. for 1 min, 55° C. for 30 sec, and 72° C. for 2 min. The amplification was completed with a 10-min incubation at 72° C. Primers were selected to amplify a 728 bp probe spanning a section of the HSV1 UL15 open reading frame (nucleotides 249–977). Single-stranded transcripts were purified with Promega M13 Wizard kits. The final product was mixed 1:1 with a mixture of 6 M GuSCN, 100 mM EDTA and 200 μg/mL herring sperm DNA and stored at 4° C.
The capture DNA plasmid (HSV UL13 region in pUC) was linearized by cutting with Xba I, denatured for 15 min at 95° C. and diluted immediately into Reacti-Bind DNA Coating Solution (Pierce, 17250, diluted 1:1 with TE buffer, pH 8) at 1 ng/μL 75 μL/well were added to Corning (#3922 or 9690) white 96-well plates and incubated at room temperature for at least 4 hrs before washing twice with 300 μL/well 0.2×SSC/0.05% Tween-20 (SSC/T buffer). The plates were then incubated overnight at room temperature with 150 μL/well 0.2 N NaOH, 1% IGEPAL and 10 μg/mL herring sperm DNA.
Twenty-seven (27) μL of cell lysate was combined with 45 μL of hybridization solution (final concentration: 3M GuSCN, 50 mM EDTA, 100 μg/ml salmon sperm DNA, 5× Denhardt's solution, 0.25×APE, and 5 ng of the digoxigenin-labeled detection probe). APE is 1.5 M NH4-acetate, 0.15 M ammonium phosphate monobasic, and 5 mM EDTA adjusted to pH 6.0. Mineral oil (50 μL) was added to prevent evaporation. The hybridization plates were incubated at 95° C. for 10 minutes to denature the DNA, then incubated at 42° C. overnight. The wells were washed 6× with 300 μl/well SSC/T buffer then incubated with 75 μL/well anti-digoxigenin-HRP-conjugated antibody (Boehringer Mannheim 1207733, 1:5000 in TE) for 30 min at room temperature. The wells were washed 6× with […] with PBS/0.05% Tween-20 before 75 μL/well SuperSignal LBA substrate (Pierce) was added. The plates were incubated at room temperature for 30 minutes and chemiluminescence was measured in a Wallac Victor reader.

| Structure (SMILES) | IC50 [µM] |
| --- | --- |
| Cc1ccoc1-c1nn2c(NC3CC3)cccc2c1-c1ccnc(NC2CC2)n1 [Example 24, N-Cyclopropyl-3-[2-(cyclopropylamino)-4-pyrimidinyl]-2-(3-methyl-2-furyl)pyrazolo[1,5-a]pyridin-7-amine] | 5 |
| CC(C)Nc1nccc(-c2nn3c(NC(C)C)cccc3c2-c2ccnc(NC(C)C)n2)n1 [Example 13, N-Isopropyl-2,3-bis[2-(isopropylamino)pyrimidin-4-yl]pyrazolo[1,5-a]pyridin-7-amine] | 3.3 |
| c1ccc(CNc2nccc(-c3nn4c(NCc5ccccc5)cccc4c3-c3ccnc(NCc4ccccc4)n3)n2)cc1 [Example 12, N-Benzyl-2,3-bis[2-(benzylamino)pyrimidin-4-yl]pyrazolo[1,5-a]pyridin-7-amine] | 36 |
| CC(C)Nc1cc(-c2nn3c(NC(C)C)cccc3c2-c2ccnc(NC3CC3)n2)ccn1 [Example 17, 3-[2-(Cyclopropylamino)-4-pyrimidinyl]-N-isopropyl-2-[2-(isopropylamino)-4-pyridinyl]pyrazolo[1,5-a]pyridin-7-amine] | 2.9 |
| Cc1nc(-c2nn3c(NC4CCCC4)cccc3c2-c2ccnc(NC3CCCC3)c2)cs1 [Example 28, N-Cyclopentyl-3-[2-(cyclopentylamino)-4-pyridinyl]-2-(2-methyl-1,3-thiazol-4-yl)pyrazolo[1,5-a]pyridin-7-amine] | 1.7 |
| c1cncc(-c2nn3c(NC4CCCC4)cccc3c2-c2ccnc(NC3CCCC3)n2)c1 [Example 3, N-cyclopentyl-3-[2-(cyclopentylamino)-4-pyrimidinyl]-2-(3-pyridinyl)pyrazolo[1,5-a]pyridin-7-amine] | 0.6 |
| CC(C)Nc1cc(-c2nn3c(NC4CCCC4)cccc3c2-c2ccnc(NC3CCCC3)n2)ccn1 [Example 20, N-Cyclopentyl-3-[2-(cyclopentylamino)-4-pyrimidinyl]-2-[2-(isopropylamino)-4-pyridinyl]pyrazolo[1,5-a]pyridin-7-amine] | 0.5 |
| CC(C)Nc1cc(-c2nn3c(NC(C)C)cccc3c2-c2ccnc(NC3CCCC3)n2)ccn1 [Example 19, 3-[2-(Cyclopentylamino)-4-pyrimidinyl]-N-isopropyl-2-[2-(isopropylamino)-4-pyridinyl]pyrazolo[1,5-a]pyridin-7-amine] | 0.7 |
| c1ccn2nc(-c3ccnc(NC4CCCC4)n3)c(-c3ccnc(NC4CCCC4)n3)c2c1 [Example 4, N-Cyclopentyl-N-(4-{2-[2-(cyclopentylamino)-4-pyrimidinyl]pyrazolo[1,5-a]pyridin-3-yl]-2-pyrimidinyl)amine] | 3.1 |
| Cc1ccoc1-c1nn2c(NC3CCCC3)cccc2c1-c1ccnc(NC2CCCC2)n1 [Example 22, N-Cyclopentyl-3-[2-(cyclopentylamino)-4-pyrimidinyl]-2-(3-methyl-2-furyl)pyrazolo[1,5-a]pyridin-7-amine] | 0.2 |
| c1cc(N2CCOCC2)n2nc(-c3ccnc(N4CCOCC4)n3)c(-c3ccnc(N4CCOCC4)n3)c2c1 [Example 10] | 33 |
| c1coc(-c2nn3c(NC4CC4)cccc3c2-c2ccnc(NC3CCCC3)n2)c1 [Example 26, 3-[2-(Cyclopentylamino)-4-pyrimidinyl]-N-cyclopropyl-2-(2-furyl)pyrazolo[1,5-a]pyridin-7-amine] | 1.4 |

Now from value to molecule:

| IC50 [µM] | Structure (SMILES) |
| --- | --- |
| 0.5 | c1coc(-c2nn3c(NC4CCCC4)cccc3c2-c2ccnc(NC3CCCC3)n2)c1 [Example 25, N-Cyclopentyl-3-[2-(cyclopentylamino)-4-pyrimidinyl]-2-(2-furyl)pyrazolo[1,5-a]pyridin-7-amine] |
| 0.8 | Cc1ccoc1-c1nn2c(NC3CCCC3)cccc2c1-c1ccnc(NC2CC2)n1 [Example 23, N-Cyclopentyl-3-[2-(cyclopropylamino)-4-pyrimidinyl]-2-(3-methyl-2-furyl)pyrazolo[1,5-a]pyridin-7-amine] |
| 0.5 | Brc1ccc(-c2nn3c(NC4CCCC4)cccc3c2-c2ccnc(NC3CCCC3)n2)o1 [Example 27, 2-(5-Bromo-2-furyl)-N-cyclopentyl-3-[2-(cyclopentylamino)-4-pyrimidinyl]pyrazolo[1,5-a]pyridin-7-amine] |
| 0.5 | c1coc(-c2nn3c(NC4CCCC4)cccc3c2-c2ccnc(NC3CCCC3)c2)c1 [Example 21, N-Cyclopentyl-3-[2-(cyclopentylamino)-4-pyridinyl]-2-(2-furyl)pyrazolo[1,5-a]pyridin-7-amine] |
| 0.4 | c1cc(NC2CCCC2)n2nc(-c3ccnc(NC4CCCC4)n3)c(-c3ccnc(NC4CCCC4)n3)c2c1 [Example 6, N-Cyclopentyl-2,3-bis[2-(cyclopentylamino)-4-pyrimidinyl]pyrazolo[1,5-a]pyridin-7-amine] |
| 1.6 | CC(C)CNc1nccc(-c2nn3c(NCC(C)C)cccc3c2-c2ccnc(NCC(C)C)n2)n1 [Example 11, N-Isobutyl-2,3-bis[2-(isobutylamino)pyrimidin-4-yl]pyrazolo[1,5-a]pyridin-7-amine] |
| 1.5 | c1cc(NC2CCCC2)n2nc(-c3ccncc3)c(-c3ccnc(NC4CCCC4)n3)c2c1 [Example 1, N-Cyclopentyl-3-[2-(cyclopentylamino)-4-pyrimidinyl]-2-(4-pyridinyl)pyrazolo[1,5-a]pyridin-7-amine] |
| 0.8 | CCCCNc1nccc(-c2nn3c(NCCCC)cccc3c2-c2ccnc(NCCCC)n2)n1 [Example 8, N-Butyl-2,3-bis[2-(butylamino)pyrimidin-4-yl]pyrazolo[1,5-a]pyridin-7-amine] |
| 23 | c1cc(NC2CC2)n2nc(-c3ccnc(NC4CC4)n3)c(-c3ccnc(NC4CC4)n3)c2c1 [Example 9, N-Cyclopropyl-2,3-bis[2-(cyclopropylamino)pyrimidin-4-yl]pyrazolo[1,5-a]pyridin-7-amine] |
| 1 | CC(C)Nc1nccc(-c2c(-c3ccnc(NC4CCCC4)c3)nn3c(NC4CCCC4)cccc23)n1 [Example 18, N-Cyclopentyl-2-[2-(cyclopentylamino)-4-pyridinyl]-3-[2-(isopropylamino)-4-pyrimidinyl]pyrazolo[1,5-a]pyridin-7-amine] |
